From patent US6706663B2, “Herbicidal 3-heterocyclic substituted benzisothiazole and benzisoxazole compounds” (Wyeth, priority 2000, dated 2004)

How the values were obtained:
SETVI (Setaria viridis) [1] = assay: Postemergence herbicidal evaluation; assay type: in vivo, (L.) Beau; settings: for SETVI herbicidal rating: postemergence
Method in brief: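 Visual injury score (0-9: stand, vigor, malformation, size, chlorosis, overall appearance vs untreated control) taken four to five weeks post-spray. Two-week-old seedlings received about 0.0040 to 1.000 kg/ha active compound in acetone/water with 0.5% TWEEN 20.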

ORYSAT (Rice, Tebonnet) [2] = assay: Postemergence herbicidal evaluation; assay type: in vivo, Oryza sativa, (L.) Tebonnet; settings: for ORYSAT herbicidal rating: postemergence
Method in brief: (§1)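 Visual 0–9 injury scores versus control plants, covering stand, vigour, malformation, size, chlorosis and general appearance, taken four to five weeks post-spray and averaged over replicate tests. Plants were sprayed at roughly two weeks old and held on greenhouse benches.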

[3] = test system: TRZAWR (Wheat, Winter, cv Riband); assay: Postemergence herbicidal evaluation; assay type: in vivo, Triticum aestivum; settings: for TRZAWR herbicidal rating: postemergence
Method in brief: as §1

[4] = test system: ABUTH (Abutilon theophrasti); assay: Preemergence herbicidal evaluation; assay type: in vivo, Medic.; settings: rated 4-5 weeks after treatment
[5] = test system: ECHCG (Echinochloa crus-galli); assay: Preemergence herbicidal evaluation; assay type: in vivo, (L.) Beau; settings: rated 4-5 weeks after treatment
Method in brief: (§2)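 Visual 0-9 rating versus untreated control, taken four to five weeks post-treatment, scoring stand, vigor, malformation, size, chlorosis and overall appearance. Compound applied as aqueous acetone spray to freshly seeded soil cups, then kept under standard greenhouse care.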

SETVI (Setaria viridis) [6] = assay: Preemergence herbicidal evaluation; assay type: in vivo, (L.) Beau; settings: rated 4-5 weeks after treatment
Method in brief: as §2

[7] = test system: MOOVA (Monochoria vaginalis); assay: Flooded paddy, preemergence weed control; assay type: in vivo, Presl.; settings: rated 3-4 weeks after treatment, 0-9 rating scale
Method in brief: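 Under paddy conditions, seeds or vegetative propagules go into the top 0.5 cm of silt loam; the soil is then flooded to 1.5–3 cm and kept so. Treated pots stay in a greenhouse; response is rated 0-9 visually versus control.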

ORYSAT (Rice, Tebonnet) [8] = assay: Flooded paddy, post-transplant rice tolerance; assay type: in vivo, Oryza sativa, (L.) Tebonnet; settings: flooded paddy, post-transplant rice, rated 3-4 weeks after treatment, 0-9 rating scale
Method in brief: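 Seedlings aged ten days are transplanted in pairs into undrained pots of silt loam, which are then flooded to a depth of 1.5 to 3 cm. After herbicide application the pots are kept in a greenhouse with the flood maintained. Plants are rated 0-9 by visual comparison with controls.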

Cc1nnc(-c2nsc3ccc(-n4c(=O)cc(C(F)(F)F)n(C)c4=O)cc23)s1 [Compound 17, 1-methyl-3-[3-(5-methyl-1,3,4-thiadiazol-2-yl)-1,2-benzisothiazol-5-yl]-6-(trifluoromethyl)uracil]
Postemergence herbicidal rating, SETVI (SETVI (Setaria viridis) [1]; rate 0.0320 kg/ha): 0.0
Postemergence herbicidal rating, SETVI (SETVI (Setaria viridis) [1]; rate 0.0620 kg/ha): 0.0
Postemergence herbicidal rating, SETVI (SETVI (Setaria viridis) [1]; rate 0.1250 kg/ha): 3.0
Postemergence herbicidal rating, SETVI (SETVI (Setaria viridis) [1]; rate 0.2500 kg/ha): 7.0
Postemergence herbicidal rating, ORYSAT (ORYSAT (Rice, Tebonnet) [2]; rate 0.0320 kg/ha): 1.0
Postemergence herbicidal rating, ORYSAT (ORYSAT (Rice, Tebonnet) [2]; rate 0.0620 kg/ha): 1.5
Postemergence herbicidal rating, ORYSAT (ORYSAT (Rice, Tebonnet) [2]; rate 0.1250 kg/ha): 2.0
Postemergence herbicidal rating, ORYSAT (ORYSAT (Rice, Tebonnet) [2]; rate 0.2500 kg/ha): 7.5
Postemergence herbicidal rating, TRZAWR ([3]; rate 0.0320 kg/ha): 3.0
Postemergence herbicidal rating, TRZAWR ([3]; rate 0.0620 kg/ha): 3.0
Postemergence herbicidal rating, TRZAWR ([3]; rate 0.1250 kg/ha): 3.0
Postemergence herbicidal rating, TRZAWR ([3]; rate 0.2500 kg/ha): 3.5
ABUTH preemergence herbicidal rating ([4]; Rate 0.0620 kg/ha): 9.0
ABUTH preemergence herbicidal rating ([4]; Rate 0.1250 kg/ha): 9.0
ABUTH preemergence herbicidal rating ([4]; Rate 0.2500 kg/ha): 9.0
ECHCG preemergence herbicidal rating ([5]; Rate 0.0620 kg/ha): 0.0
ECHCG preemergence herbicidal rating ([5]; Rate 0.1250 kg/ha): 1.0
ECHCG preemergence herbicidal rating ([5]; Rate 0.2500 kg/ha): 5.0
SETVI preemergence herbicidal rating (SETVI (Setaria viridis) [6]; Rate 0.0620 kg/ha): 0.0
SETVI preemergence herbicidal rating (SETVI (Setaria viridis) [6]; Rate 0.1250 kg/ha): 9.0
SETVI preemergence herbicidal rating (SETVI (Setaria viridis) [6]; Rate 0.2500 kg/ha): 9.0
herbicidal rating, MOOVA ([7]; rate 0.0080 kg/ha): 6.0
herbicidal rating, MOOVA ([7]; rate 0.0320 kg/ha): 9.0
herbicidal rating, MOOVA ([7]; rate 0.1250 kg/ha): 9.0
herbicidal rating, ORYSAT (rice tolerance) (ORYSAT (Rice, Tebonnet) [8]; rate 0.0080 kg/ha): 0.0
herbicidal rating, ORYSAT (rice tolerance) (ORYSAT (Rice, Tebonnet) [8]; rate 0.0320 kg/ha): 2.5
herbicidal rating, ORYSAT (rice tolerance) (ORYSAT (Rice, Tebonnet) [8]; rate 0.1250 kg/ha): 4.5

Cn1c(C(F)(F)F)cc(=O)n(-c2ccc3snc(C4OCC(CO)O4)c3c2)c1=O (stereo not drawn) [Compound 73, 3-[3-[4-(hydroxymethyl)-1,3-dioxolan-2-yl]-1,2-benzisothiazol-5-yl]-1-methyl-6-(trifluoromethyl)uracil]
SETVI herbicidal rating (SETVI (Setaria viridis) [1]; rate 0.0320 kg/ha): 4.0
SETVI herbicidal rating (SETVI (Setaria viridis) [1]; rate 0.0620 kg/ha): 8.0
ORYSAT herbicidal rating (ORYSAT (Rice, Tebonnet) [2]; rate 0.0320 kg/ha): 3.0
ORYSAT herbicidal rating (ORYSAT (Rice, Tebonnet) [2]; rate 0.0620 kg/ha): 4.0
TRZAWR herbicidal rating ([3]; rate 0.0320 kg/ha): 3.5
TRZAWR herbicidal rating ([3]; rate 0.0620 kg/ha): 4.0
Preemergence herbicidal rating ABUTH ([4]; Rate 0.0620 kg/ha): 9.0
Preemergence herbicidal rating ABUTH ([4]; Rate 0.1250 kg/ha): 9.0
Preemergence herbicidal rating ABUTH ([4]; Rate 0.2500 kg/ha): 9.0
Preemergence herbicidal rating ECHCG ([5]; Rate 0.0620 kg/ha): 7.5
Preemergence herbicidal rating ECHCG ([5]; Rate 0.1250 kg/ha): 9.0
Preemergence herbicidal rating ECHCG ([5]; Rate 0.2500 kg/ha): 9.0
Preemergence herbicidal rating SETVI (SETVI (Setaria viridis) [6]; Rate 0.0620 kg/ha): 9.0
Preemergence herbicidal rating SETVI (SETVI (Setaria viridis) [6]; Rate 0.1250 kg/ha): 9.0
Preemergence herbicidal rating SETVI (SETVI (Setaria viridis) [6]; Rate 0.2500 kg/ha): 9.0
herbicidal rating, MOOVA ([7]; rate 0.0080 kg/ha): 0.0
herbicidal rating, MOOVA ([7]; rate 0.0320 kg/ha): 0.0
herbicidal rating, MOOVA ([7]; rate 0.1250 kg/ha): 9.0
herbicidal rating, ORYSAT (rice tolerance) (ORYSAT (Rice, Tebonnet) [8]; rate 0.0080 kg/ha): 0.0
herbicidal rating, ORYSAT (rice tolerance) (ORYSAT (Rice, Tebonnet) [8]; rate 0.0320 kg/ha): 0.0
herbicidal rating, ORYSAT (rice tolerance) (ORYSAT (Rice, Tebonnet) [8]; rate 0.1250 kg/ha): 5.0

Cn1c(C(F)(F)F)cc(=O)n(-c2ccc3snc(C4(C)OCCO4)c3c2)c1=O [Compound 54, 1-methyl-3-[3-(2-methyl-1,3-dioxolan-2-yl)-1,2-benzisothiazol-5-yl]-6-(trifluoromethyl)uracil]
SETVI herbicidal rating (SETVI (Setaria viridis) [1]; rate 0.0320 kg/ha): 3.0
SETVI herbicidal rating (SETVI (Setaria viridis) [1]; rate 0.0620 kg/ha): 9.0
SETVI herbicidal rating (SETVI (Setaria viridis) [1]; rate 0.1250 kg/ha): 8.0
ORYSAT herbicidal rating (ORYSAT (Rice, Tebonnet) [2]; rate 0.0320 kg/ha): 5.0
ORYSAT herbicidal rating (ORYSAT (Rice, Tebonnet) [2]; rate 0.0620 kg/ha): 6.5
ORYSAT herbicidal rating (ORYSAT (Rice, Tebonnet) [2]; rate 0.1250 kg/ha): 7.0
TRZAWR herbicidal rating ([3]; rate 0.0320 kg/ha): 5.0
TRZAWR herbicidal rating ([3]; rate 0.0620 kg/ha): 6.5
TRZAWR herbicidal rating ([3]; rate 0.1250 kg/ha): 7.5
Preemergence herbicidal rating ABUTH ([4]; Rate 0.0620 kg/ha): 9.0
Preemergence herbicidal rating ABUTH ([4]; Rate 0.1250 kg/ha): 9.0
Preemergence herbicidal rating ABUTH ([4]; Rate 0.2500 kg/ha): 9.0
Preemergence herbicidal rating ECHCG ([5]; Rate 0.0620 kg/ha): 9.0
Preemergence herbicidal rating ECHCG ([5]; Rate 0.1250 kg/ha): 9.0
Preemergence herbicidal rating ECHCG ([5]; Rate 0.2500 kg/ha): 9.0
Preemergence herbicidal rating SETVI (SETVI (Setaria viridis) [6]; Rate 0.0620 kg/ha): 9.0
Preemergence herbicidal rating SETVI (SETVI (Setaria viridis) [6]; Rate 0.1250 kg/ha): 9.0
Preemergence herbicidal rating SETVI (SETVI (Setaria viridis) [6]; Rate 0.2500 kg/ha): 9.0
herbicidal rating, MOOVA ([7]; rate 0.0320 kg/ha): 9.0
herbicidal rating, MOOVA ([7]; rate 0.1250 kg/ha): 9.0
herbicidal rating, ORYSAT (rice tolerance) (ORYSAT (Rice, Tebonnet) [8]; rate 0.0080 kg/ha): 7.0
herbicidal rating, ORYSAT (rice tolerance) (ORYSAT (Rice, Tebonnet) [8]; rate 0.0320 kg/ha): 8.5
herbicidal rating, ORYSAT (rice tolerance) (ORYSAT (Rice, Tebonnet) [8]; rate 0.1250 kg/ha): 9.0

Cc1cc(C)nc(-c2nsc3ccc(-n4c(=O)cc(C(F)(F)F)n(C)c4=O)cc23)n1 [Compound 40, 3-[3-(4,6-dimethyl-2-pyrimidinyl)-1,2-benzisothiazol-5-yl]-1-methyl-6-(trifluoromethyl)uracil]
Postemergence herbicidal rating, SETVI (SETVI (Setaria viridis) [1]; rate 0.0320 kg/ha): 3.0
Postemergence herbicidal rating, SETVI (SETVI (Setaria viridis) [1]; rate 0.0620 kg/ha): 9.0
Postemergence herbicidal rating, ORYSAT (ORYSAT (Rice, Tebonnet) [2]; rate 0.0320 kg/ha): 2.0
Postemergence herbicidal rating, ORYSAT (ORYSAT (Rice, Tebonnet) [2]; rate 0.0620 kg/ha): 2.0
Postemergence herbicidal rating, TRZAWR ([3]; rate 0.0320 kg/ha): 3.5
Postemergence herbicidal rating, TRZAWR ([3]; rate 0.0620 kg/ha): 4.0
Preemergence herbicidal rating ABUTH ([4]; Rate 0.0620 kg/ha): 9.0
Preemergence herbicidal rating ABUTH ([4]; Rate 0.1250 kg/ha): 9.0
Preemergence herbicidal rating ABUTH ([4]; Rate 0.2500 kg/ha): 9.0
Preemergence herbicidal rating ECHCG ([5]; Rate 0.0620 kg/ha): 3.0
Preemergence herbicidal rating ECHCG ([5]; Rate 0.1250 kg/ha): 7.0
Preemergence herbicidal rating ECHCG ([5]; Rate 0.2500 kg/ha): 8.0
Preemergence herbicidal rating SETVI (SETVI (Setaria viridis) [6]; Rate 0.0620 kg/ha): 3.0
Preemergence herbicidal rating SETVI (SETVI (Setaria viridis) [6]; Rate 0.1250 kg/ha): 9.0
Preemergence herbicidal rating SETVI (SETVI (Setaria viridis) [6]; Rate 0.2500 kg/ha): 9.0
herbicidal rating, MOOVA ([7]; rate 0.0320 kg/ha): 7.0
herbicidal rating, MOOVA ([7]; rate 0.1250 kg/ha): 9.0
herbicidal rating, ORYSAT (rice tolerance) (ORYSAT (Rice, Tebonnet) [8]; rate 0.0320 kg/ha): 5.0
herbicidal rating, ORYSAT (rice tolerance) (ORYSAT (Rice, Tebonnet) [8]; rate 0.1250 kg/ha): 7.0
